According to patent US7598418B2, “Amide derivatives” (Institute of Medicinal Molecular Design, Inc., priority 2002, dated 2009):

Each compound was assayed on Jurkat cells (assay: Jurkat cell proliferation, MTS method: compound alone or combined with bleomycin). Settings: compound plus bleomycin 5 μg/ml or 10 μg/ml, 36 hours, survival rate vs DMSO control.
Type: cell-based
Set-up: key: ┌++┘ indicates observation of remarkable enhancement; ┌+┘ indicates moderated enhancement
Protocol: By using aforementioned synthetic compounds, effects on proliferation of Jurkat cells by sole administration and inhibitory effects on cell proliferation by administration in combination with bleomycin were examined. Materials and methods are as follows. Jurkat cells obtained from Dainippon Pharmaceutical Co. Ltd. were inoculated at about 10,000 cells per well in a 96 well culture plate, and incubated in 10% bovine fetal serum (Irvine Scientific) supplemented with RPMI1640 (ICN) medium in 5% CO2 incubator at 37° C. […] 36 hours after the incubation, the number of living cells was counted by the MTS method.
More specifically, 20 μl of CellTiter96™ AQueous One Solution (Promega) was added per one well, and after the cells were incubated for additional one hour, an absorbance at 490 nm was measured by using a microplate reader. The same culture added with DMSO as a solvent at final concentration of 0.25% was used as a control. The number of cells in the control was considered as 100% survival rate, and for each compound, survival rates by sole administration or a combined administration were calculated. […] In the table, ┌++┘ indicates observation of remarkable enhancement, ┌+┘ indicates moderated enhancement.

| Compound | Activity (enhancement of inhibitory effect on cell proliferation in combination with bleomycin) |
| --- | --- |
| COc1cccc(CNS(=O)(=O)c2cccc3c(OS(=O)(=O)c4ccc(C)cc4)cccc23)c1OC [Compound 1-13, N-(2,3-Dimethoxybenzyl)-5-{[(4-methylphenyl)sulfonyl]oxy}naphthalene-1-sulfonamide] | + |
| Cc1ccc(S(=O)(=O)Oc2cccc3c(S(=O)(=O)NCc4ccc(Cl)cc4Cl)cccc23)cc1 [Compound 1-3, N-(2,4-Dichlorobenzyl)-5-{[(4-methylphenyl)sulfonyl]oxy}naphthalene-1-sulfonamide] | ++ |
| Cc1ccc(S(=O)(=O)Oc2cccc3c(S(=O)(=O)NCc4ccc(C(C)(C)C)cc4)cccc23)cc1 [Compound 1-7, N-[4-(tert-Butyl)benzyl]-5-{[(4-methylphenyl)sulfonyl]oxy}naphthalene-1-sulfonamide] | ++ |
| COc1cccc(CNS(=O)(=O)c2ccc3c(N)cccc3c2)c1OC [Compound 6-3, 5-Amino-N-(2,3-dimethoxybenzyl)naphthalene-2-sulfonamide] | + |
| Cc1ccc(S(=O)(=O)Oc2cccc3c(S(=O)(=O)NCc4c(F)cccc4F)cccc23)cc1 [Compound 1-2, N-(2,6-Difluorobenzyl)-5-{[(4-methylphenyl)sulfonyl]oxy}naphthalene-1-sulfonamide] | + |
| COc1cccc(CNS(=O)(=O)c2ccc3c(O)cccc3c2)c1OC [Compound 4-6, N-(2,3-Dimethoxybenzyl)-5-hydroxynaphthalene-2-sulfonamide] | + |
| O=S(=O)(NCc1ccc(C(F)(F)F)cc1)c1ccc2c(O)cccc2c1 [Compound 4-5, N-[4-(Trifluoromethyl)benzyl]-5-hydroxynaphthalene-2-sulfonamide] | + |
| COc1cccc(CNS(=O)(=O)c2cccc3c(OS(=O)(=O)c4ccc(C)cc4)cccc23)c1 [Compound 1-12, N-(3-Methoxybenzyl)-5-{[(4-methylphenyl)sulfonyl]oxy}naphthalene-1-sulfonamide] | + |
| O=S(=O)(NCc1ccccc1)c1ccc2c(O)cccc2c1 [Compound 4-1, N-Benzyl-5-hydroxynaphthalene-2-sulfonamide] | + |
| O=S(=O)(NCc1ccc(C(F)(F)F)cc1)c1cccc2c(O)cccc12 [Compound 2-9, N-[4-(Trifluoromethyl)benzyl]-5-hydroxynaphthalene-1-sulfonamide] | + |
| Cc1ccc(S(=O)(=O)Oc2cccc3c(S(=O)(=O)NCc4ccccc4C)cccc23)cc1 [Compound 1-6, N-(2-Methylbenzyl)-5-{[(4-methylphenyl)sulfonyl]oxy}naphthalene-1-sulfonamide] | ++ |
| Cc1ccc(S(=O)(=O)Oc2cccc3c(S(=O)(=O)NCCc4ccccc4)cccc23)cc1 [Compound 1-25, N-(2-Phenethyl)-5-{[(4-methylphenyl)sulfonyl]oxy}naphthalene-1-sulfonamide] | + |
| O=S(=O)(NCC1CCCCC1)c1cccc2c(O)cccc12 [Compound 2-23, N-Cyclohexylmethyl-5-hydroxynaphthalene-1-sulfonamide] | + |
| CC(C)(C)c1ccc(CNS(=O)(=O)c2cccc3c(O)cccc23)cc1 [Compound 2-7, N-[4-(tert-Butyl)benzyl]-5-hydroxynaphthalene-i-sulfonamide] | ++ |
| CC(C)(C)c1ccc(CNS(=O)(=O)c2ccc3c(O)cccc3c2)cc1 [Compound 4-4, N-[4-(tert-Butyl)benzyl]-5-hydroxynaphthalene-2-sulfonamide] | ++ |
| O=S(=O)(NCc1cccc2ccccc12)c1ccc2c(O)cccc2c1 [Compound 4-8, N-(1-Naphthylmethyl)-5-hydroxynaphthalene-2-sulfonamide] | + |
| Cc1ccc(S(=O)(=O)Oc2cccc3c(S(=O)(=O)N(C)Cc4ccccc4)cccc23)cc1 [Compound 1-27, N-Benzyl-N-methyl-5-{[(4-methylphenyl)sulfonyl]oxy}naphthalene-1-sulfonamide] | + |
| Cc1ccc(S(=O)(=O)Oc2cccc3c(S(=O)(=O)NCc4ccc5c(c4)OCO5)cccc23)cc1 [Compound 1-15, N-(3,4-Methylenedioxybenzyl)-5-{[(4-methylphenyl)sulfonyl]oxy}naphthalene-1-sulfonamide] | + |

| Compound | Activity (enhancement of inhibitory effect on cell proliferation in combination with bleomycin) |
| --- | --- |
| O=S(=O)(NCc1cccc2ccccc12)c1cccc2c(O)cccc12 [Compound 2-19, N-(1-Naphthylmethyl)-5-hydroxynaphthalene-1-sulfonamide] | ++ |
| Cc1ccc(S(=O)(=O)Oc2cccc3c(S(=O)(=O)NCc4ccc([N+](=O)[O-])cc4)cccc23)cc1 [Compound 1-5, N-(4-Nitrobenzyl)-5-{[(4-methylphenyl)sulfonyl]oxy}naphthalene-1-sulfonamide] | ++ |
| CC(=O)Oc1cccc2cc(S(=O)(=O)NCc3ccc(C(F)(F)F)cc3)ccc12 [Compound 3-5, 5-Acetyloxy-N-[4-(trifluoromethyl)benzyl]naphthalene-2-sulfonamide] | + |
| CC(=O)Oc1cccc2cc(S(=O)(=O)NCc3ccc(C)o3)ccc12 [Compound 3-9, 5-Acetyloxy-N-[(5-methylfuran-2-yl)methyl]naphthalene-2-sulfonamide] | + |
| Cc1ccc(S(=O)(=O)Oc2cccc3c(S(=O)(=O)NCc4ccccc4)cccc23)cc1 [Compound 1-1, N-Benzyl-5-{[(4-methylphenyl)sulfonyl]oxy}naphthalene-1-sulfonamide] | ++ |
| Cc1ccc(S(=O)(=O)Oc2cccc3c(S(=O)(=O)NCc4cccc(N)c4)cccc23)cc1 [Compound 1-16, N-(3-Aminobenzyl)-5-{[(4-methylphenyl)sulfonyl]oxy}naphthalene-1-sulfonamide] | + |
| O=S(=O)(NCCc1ccccc1)c1ccc2c(O)cccc2c1 [Compound 4-13, N-(2-Phenethyl)-5-hydroxynaphthalene-2-sulfonamide] | + |
| O=S(=O)(NCCc1ccccc1)c1cccc2c(O)cccc12 [Compound 2-25, N-(2-Phenethyl)-5-hydroxynaphthalene-1-sulfonamide] | + |
| O=S(=O)(NCc1ccc(Cl)cc1Cl)c1cccc2c(O)cccc12 [Compound 2-3, N-(2,4-Dichlorobenzyl)-5-hydroxynaphthalene-1-sulfonamide] | ++ |
| Cc1ccc(S(=O)(=O)Oc2cccc3c(S(=O)(=O)NCc4cccc5ccccc45)cccc23)cc1 [Compound 1-19, N-(1-Naphthylmethyl)-5-{[(4-methylphenyl)sulfonyl]oxy}naphthalene-1-sulfonamide] | ++ |
| Cc1ccc(S(=O)(=O)Oc2cccc3c(S(=O)(=O)NCc4ccc(C)o4)cccc23)cc1 [Compound 1-20, N-[(5-Methylfuran-2-yl)methyl]-5-{[(4-methylphenyl)sulfonyl]oxy}naphthalene-1-sulfonamide] | + |
| CC(=O)Oc1cccc2cc(S(=O)(=O)NCc3ccc(C(C)(C)C)cc3)ccc12 [Compound 3-4, 5-Acetyloxy-N-[4-(tert-butyl)benzyl]naphthalene-2-sulfonamide] | ++ |
| Cc1ccc(S(=O)(=O)Oc2cccc3c(S(=O)(=O)NCc4ccc(N(C)C)cc4)cccc23)cc1 [Compound 1-17, N-[4-(Dimethylamino)benzyl]-5-{[(4-methylphenyl)sulfonyl]oxy}naphthalene-1-sulfonamide] | ++ |
| COc1ccccc1CNS(=O)(=O)c1cccc2c(O)cccc12 [Compound 2-11, N-(2-Methoxylbenzyl)-5-hydroxynaphthalene-1-sulfonamide] | + |
| COc1ccccc1CNS(=O)(=O)c1cccc2c(OS(=O)(=O)c3ccc(C)cc3)cccc12 [Compound 1-11, N-(2-Methoxybenzyl)-5-{[(4-methylphenyl)sulfonyl]oxy}naphthalene-1-sulfonamide] | ++ |
| Nc1cccc(CNS(=O)(=O)c2ccc3c(O)cccc3c2)c1 [Compound 4-7, N-(3-Aminobenzyl)-5-hydroxynaphthalene-2-sulfonamide] | + |
| O=S(=O)(NCc1ccccc1C(F)(F)F)c1cccc2c(O)cccc12 [Compound 2-8, N-[2-(Trifluoromethyl)benzyl]-5-hydroxynaphthalene-1-sulfonamide] | + |
